Legend:
[1] = Antioxidant effect, ORAC-FL method (capacity to capture free radicals); settings: 75 mM phosphate buffer pH 7.4, 37° C., compounds tested at 4 concentrations
From the text: Given that in many neurodegenerative diseases neuronal death occurs due to oxidative stress, the capacity of these compounds to capture free radicals has been evaluated using the ORAC methodology.
Determination is following the ORAC-FL method of Ou et al. partially adapted by BMG LABTECH (BMG LABTECH Application note 148 (2006): ORAC Assay on the FLUOstar OPTIMA to Determine Antioxidant Capacity. http://www.bmglabtech.com/application-notes/fluorescence-intensity/orac 148.cfm). The FLUOstar Optima (BMG Labtechnologies GmbH, Offenburg, Germany) plate reader was used with an excitation filter at 485 nm excitation and 520 nm emission. 2,2′-Azobis-(amidinopropane) dihydrochloride (AAPH), (±)-6-hydroxy-2,5,7,8-tetramethylchromane-2-carboxylic acid (trolox) and fluorescein (FL) are purchased from Sigma-Aldrich. The reaction is carried out in 75 mM phosphate buffer (pH 7.4) and a final reaction volume of 200 μL. The antioxidant (25 μL) and fluorescein (150 μL; 10 nM) are placed on black 96-well plates (96F untreat, Nunc™). The mixture is pre-incubated during 30 minutes at 37° C. afterwards rapidly adding a solution of AAPH (25 μL, 240 mM), using a multi-channel pipette. The microplate is rapidly placed on the reader and fluorescence is measured every 90 sec during 90 min. The 96-well plate is agitated automatically before each reading. The compounds are tested at 4 different concentrations (10-1 μ). A blank is also placed (FL+AAPH in phosphate buffer) and as reference compound four concentrations of trolox (10-1 μM). All reactions are carried out in duplicate, and at least three different tests per compound. Data are exported to an Excel spreadsheet (Microsoft), representing absorbance versus time and subsequently the area under curve is calculated following the formula (1) AUC=f1/f0+fi/f0+ . . . +f34/f0+(f35/f0) wherein: AUC=area under curve • f0=fluorescence measured at time 0 • fi=fluorescence measured at time t
The net AUC values of each compound are determined by subtracting from the AUC value of the compound the AUC value of the blank (FL+AAPH in phosphate buffer).
The measurement of antioxidant is expressed in trolox equivalents. Relative trolox equivalents are calculated according to formula (2): […]

[2] = commercial drugs used to validate the PAMPA assay; literature value; cited from earlier work

SMILES	Antioxidant capacity, Trolox equivalents [1]	Bibliography (described permeability) [2]
O=c1c2ccccc2[nH]c(=S)n1-c1ccccc1 [Comp. 1, 3-phenyl-4-oxo-2-thioxo-1,2,3,4-tetrahydroquinazoline]	1.19 Trolox equivalents	–
O=c1c2ccccc2[nH]c(=S)n1-c1c(F)cccc1F [Comp. 2, 3-(2,6-difluorophenyl)-4-oxo-2-thioxo-1,2,3,4-tetrahydroquinazoline]	Not to 10 μM	–
Cc1cccc2c(=O)n(-c3ccccc3Br)c(=S)[nH]c12 [Comp. 3, 3-(2-bromophenyl)-8-methyl-4-oxo-2-thioxo-1,2,3,4-tetrahydroquinazoline]	1.31 Trolox equivalents	–
CSc1nc2c(C)cccc2c(=O)n1-c1c(F)cccc1F [Comp. 4, 3-(2,6-difluorophenyl)-8-methyl-2-methylthio-4-oxo-3,4-dihydroquinazoline]	0.13 Trolox equivalents	–
CSc1nc2c(C)cccc2c(=O)n1-c1ccccc1Br [Comp. 5, 3-(2-bromophenyl)-8-methyl-2-methylthio-4-oxo-3,4-dihydroquinazoline]	Not to 10 μM	–
S=c1[nH]c2ccccc2c(=S)n1-c1ccccc1 [Comp. 6, 3-phenyl-2,4-dithioxo-1,2,3,4-tetrahydroquinazoline]	0.46 Trolox equivalents	–
CSc1nc2ccccc2c(=S)n1-c1ccccc1 [Comp. 7, 3-phenyl-2-methylthio-4-thioxo-3,4-dihydroquinazoline]	0.37 Trolox equivalents	–
CCn1cc(C(=O)O)c(=O)c2cc(F)c(N3CCNCC3)nc21 [Enoxacine]	–	1.8
CN(C)CCCN1c2ccccc2Sc2ccccc21 [Promazine]	–	8.1
